Test results reported in article PMC11392399, “The final walk with preptin” (PLOS ONE, 2024).

Columns and labels:
[1] = tested on: intracellular calcium in U-2 OS osteoblasts; assay: Changes in intracellular calcium, U-2 OS osteoblasts; assay type: cell-based, human; conditions: U-2 OS cells; 10^−4 M; Fluo-8 fluorescence, (Fmax−F0)/F0; one-way ANOVA
Description: The day before the experiment, U-2 OS, MC3T3-E1, MIN6 and cAMP-HEK cells were seeded 6 000 (for osteoblastic cell lines U-2 OS, MC3T3-E1), 10 000 (for cAMP-HEK cells) or 30 000 (MIN6) cells per well in a black 384-well format micro plate with transparent bottom (Cat.#: 142761, Nunc, Thermo Fisher Scientific, USA). On the next day, the cultivation media was exchanged for assay buffer, consisting of HBSS (Cat.#: H6648-500ML, Sigma-Aldrich, Merck, Germany), 20 mM HEPES (Cat.#: L0180-100, Biowest, France), 2.5 mM Probenecid (Cat.#: P8761, Sigma-Aldrich, Merck, Germany), adjusted for pH 7.4 and supplemented with 4.77 μM CalciFluor™ Fluo-8, AM (Cat.#: 1345980-40-6, Santa Cruz Biotechnology, USA). After 45 min incubation with assay buffer in 37°C and 5% CO2, the cells were incubated at RT in a dark place for another 15 minutes. After this time, preptin and its analogs were added by the Agilent Bravo Automated Liquid Handling Platform (Agilent Technologies, USA). The kinetics were measured by the Spark® multimode reader from Tecan (Tecan Group Ltd., Switzerland) for 10 min (approximately 45 cycles, excitation 485 nm, emission 535 nm, band width 10 nm). Before each kinetics, the background fluorescence (F0) was measured and the result was calculated as (Fmax−F0)/F0, where Fmax corresponds to the maximum response upon stimulation by the compounds. Each compound was tested in concentration 10^−4 M.

[2] = tested on: mouse β-cell line βTC6-F7; conditions: permanent mouse β-cell line βTC6-F7; ref [8] Buchanan et al.; cited from earlier work
From the text: Cheng et al. observed an increase in insulin secretion at a glucose concentration of 25 mmol/l and Buchanan et al. used 10 mmol/l.

[3] = tested on: MIN6 pancreatic beta cells; assay: Stimulation of insulin secretion, radioimmunoassay; assay type: cell-based, mouse; conditions: basal glucose 10 mmol/l, various, very high concentrations of preptin, 1 h at 37°C, RIA
Description: MIN6 cells were seeded at a density of 100 000 cells/well in 24-well culture dishes and grown for 3 days in 1 ml of complete medium. Before experiments, cells were maintained for 2 h in a glucose-free medium. Thereafter, the cells were washed twice and preincubated for 2 h at 37°C in 0.4 ml glucose-free Krebs-Ringer bicarbonate HEPES (KRBH) buffer of the following composition: 120 mM NaCl, 4.6 mM KCl, 2 mM CaCl2, 5 mM NaHCO3, 1 mM MgSO4, 0.4 mM KH2PO4, 0.15 mM Na2HPO4, BSA (0.2 % w/v), and 20 mM HEPES with pH value adjusted to 7.4 with NaOH. Next, the buffer was removed from cells and a new portion of 0.4 ml of glucose-free KRBH buffer, but with a respective concentration of glucose and/or preptin, was added to the cells, which were incubated for 1 h at 37°C. The cells were stimulated with various concentrations of D-glucose (0 and 10 mM) and the effects of various concentrations of mouse preptin were determined for 10 mM D-glucose concentration. After the stimulation, supernatants were collected from the cells and stored at −80°C before the measurement of insulin concentration.
Radioimmunoassay (RIA) kits for the measurement of rat insulin (sensitive Rat Insulin RIA Kit, Cat. # SRI-13K) content in samples were provided by EMD Millipore Corporation and were used according to the manufacturer’s instructions. Each biological sample was measured in duplicate.

hBMSC-TERT [4] = assay: Osteoblast differentiation of hBMSC-TERT, alkaline phosphatase (ALP) activity assay; assay type: cell-based, human; conditions: summary in the conclusions
Description: (§1) hBMSC-TERT were plated at a density of 20 000 cells/cm^2 (Alizarin Red S staining) and 5 000 cells/well (ALP activity assay) in MEM medium (Gibco), supplemented with 10 % FBS (Gibco) and 1 % P/S (Gibco). One day after seeding, the medium was replaced with OB induction medium, composed of basal medium, supplemented with 10 mM B-glycerophosphate (Sigma-Aldrich), 10 nM dexamethasone (Sigma-Aldrich), 50 μg/mL vitamin C (Sigma-Aldrich), 10 nM vitamin D3 (Sigma-Aldrich) and treated with 100 ng/ml, 500 ng/ml and 1 ug/ml IGF2, IGF1, IGF2, preptin or vehicle (acetic acid) as a control. The medium was changed every other day for 7 days (ALP activity assay) or 10 days (Alizarin Red S staining).
ALP activity and cell viability assay were quantified at Day 7 of OB differentiation, in order to normalize the ALP activity data to the number of viable cells.
Cell viability assay was measured using a Cell Titer-Blue Assay Reagent (Promega) at fluorescence intensity (579Ex/584Em). ALP activity was detected by absorbance at 405 nm, using p-nitrophenyl phosphate (Sigma-Aldrich) as substrate.

[5] = tested on: human primary osteoblasts; conditions: 8 days, ref [17] Bosetti et al.; cited from earlier work
hBMSC-TERT [6] = assay: Osteoblast differentiation of hBMSC-TERT, Alizarin Red S staining; assay type: cell-based, human; conditions: increasing concentrations; day 10 of OB differentiation; compared to effects of IGF2 and preptin
Description: as §1
Mineralized matrix formation at Day 10 of OB differentiation was measured, using Alizarin Red S staining. Cells were fixed with 70 % ice-cold ethanol for 1 h at -20°C, before addition of Alizarin Red S Solution (AR-S) (Sigma-Aldrich). The cells were stained for 10 min at room temperature (RT). Excess dye was washed with distilled water and with phosphate buffered saline (PBS) (Gibco) to reduce nonspecific AR-S stain.

Substance: DVSTSQAVLPDDFPRYPVGKFFKFDTWRQSAGRL [peptide 19, native rat preptin]
- changes in intracellular calcium relative to non-stimulated cells [1]: significant increase in intracellular calcium levels
- increase of insulin secretion [2]: able to increase insulin secretion

Substance: DVSTSQAVLPDDFPRYPVGKFFQYDTWRQSAGRL [peptide 14, native mouse preptin]
- stimulation of insulin secretion [3]: did not observe a significant increase in insulin secretion

Substance: IGF1: insulin-like growth factor 1, comparator hormone
- osteoblast differentiation of hBMSCs (hBMSC-TERT [4]): only significant changes observed for IGF1
- change in ALP activity [5]: only significant change in ALP activity
- Alizarin S staining of calcified matrix (hBMSC-TERT [6]): largest changes
